Data on four compounds can be found in US10604554B2, “Double-acylated GLP-1 derivatives” (Novo Nordisk A/S, priority 2012, dated 2020).

In test [1] the target is T1, human GLP-1 receptor (Homo sapiens, UniProt P43220).
T1 construct: expressed in transfected cells; host or cells: BHK cells, clone FCW467-12A/KZ10-1 (parent line BHKTS13), further transfected with CRE luciferase
In words: In vitro potency (CRE luciferase; whole cells). Particulars: for EC50: BHK cells; for EC50/pM (ratio 1% HSA/0% HSA): ratio of EC50 at 1% HSA to EC50 at 0% HSA. The arrangement: EC50/pM (ratio 1% HSA/0% HSA): unit not given here. The class given is cell-based. Summed up:
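Stably transfected BHK cells carrying human GLP-1R and a CRE–firefly luciferase reporter, 5×10^3 cells/well in assay medium, run with 0% or 1% HSA in assay buffer.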

Test [2] has as its target T1, human GLP-1 receptor. The experiment in a line: GLP-1 receptor binding (SPA, displacement of 125I-GLP-1). Summed up:
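Membranes from a stably transfected hamster cell line, 5-10 ug protein/sample, with WGA SPA beads and [125I]-GLP-1(7-36)NH2 at 0.06 nM final. Incubated 120 min at 30 °C with shaking, then counted.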

Setting [3] is: In vitro potency (CRE luciferase) EC50 (0% HSA), 0% HSA.
Where [4] appears, read: In vitro potency (CRE luciferase) EC50 (1% HSA), 1% HSA.
[5] abbreviates: Receptor binding affinity IC50 (high HSA), 2.0% HSA (high albumin).
The mark [6] stands for this setting: Receptor binding affinity IC50 (low HSA), 0.001% HSA (low albumin).

Where two headings read alike, the source gives them in different places.

T1 sequence (P43220 24-463): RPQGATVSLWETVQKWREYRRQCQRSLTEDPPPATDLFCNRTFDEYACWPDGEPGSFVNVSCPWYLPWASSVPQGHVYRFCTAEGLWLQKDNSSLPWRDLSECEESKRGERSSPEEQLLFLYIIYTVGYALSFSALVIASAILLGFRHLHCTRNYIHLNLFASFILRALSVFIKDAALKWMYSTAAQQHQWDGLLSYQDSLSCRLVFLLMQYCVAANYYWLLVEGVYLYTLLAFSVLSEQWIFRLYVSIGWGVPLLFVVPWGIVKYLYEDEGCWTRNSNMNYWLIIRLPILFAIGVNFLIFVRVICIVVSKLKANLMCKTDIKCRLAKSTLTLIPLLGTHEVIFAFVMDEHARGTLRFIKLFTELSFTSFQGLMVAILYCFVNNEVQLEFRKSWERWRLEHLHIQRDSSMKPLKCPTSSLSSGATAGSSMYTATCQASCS

Take `CC[C@H](C)[C@H](NC(=O)[C@H](Cc1ccccc1)NC(=O)[C@H](CCC(=O)O)NC(=O)[C@H](CCCCNC(=O)[C@@H](N)CCCCNC(=O)[C@@H](N)CCCCNC(=O)CC[C@H](NC(=O)CC[C@H](NC(=O)CCCCCCCCCCCOc1ccc(C(=O)O)cc1)C(=O)O)C(=O)O)NC(=O)[C@H](C)NC(=O)[C@H](C)NC(=O)[C@H](CCC(N)=O)NC(=O)CNC(=O)[C@H](CCC(=O)O)NC(=O)[C@H](CC(C)C)NC(=O)[C@H](Cc1ccc(O)cc1)NC(=O)[C@H](CO)NC(=O)[C@H](CO)NC(=O)[C@@H](NC(=O)[C@H](CC(=O)O)NC(=O)[C@H](CO)NC(=O)[C@@H](NC(=O)[C@H](Cc1ccccc1)NC(=O)[C@@H](NC(=O)CNC(=O)[C@H](CCC(=O)O)NC(=O)C(C)(C)NC(=O)[C@@H](N)Cc1c[nH]cn1)[C@@H](C)O)[C@@H](C)O)C(C)C)C(=O)N[C@@H](C)C(=O)N[C@@H](Cc1c[nH]c2ccccc12)C(=O)N[C@@H](CC(C)C)C(=O)N[C@H](C(=O)N[C@@H](CCCNC(=N)N)C(=O)NCC(=O)N[C@@H](CCCNC(=N)N)C(=O)N[C@@H](CCCCNC(=O)[C@@H](N)CCCCNC(=O)[C@@H](N)CCCCNC(=O)CC[C@H](NC(=O)CC[C@H](NC(=O)CCCCCCCCCCCOc1ccc(C(=O)O)cc1)C(=O)O)C(=O)O)C(=O)O)C(C)C` [Example 16, N^ε26-[(2S)-2-amino-6-[[(2S)-2-amino-6-[[(4S)-4-carboxy-4-[[(4S)-4-carboxy-4-[12-(4-carboxyphenoxy)dodecanoylamino]butanoyl]amino]butanoyl]amino]hexanoyl]amino]hexanoyl], N^ε37-[(2S)-2-amino-6-[[(2S)-2-amino-6-[[(4S)-4-carboxy-4-[[(4S)-4-carboxy-4-[12-(4-carboxyphenoxy)dodecanoylamino]butanoyl]amino]butanoyl]amino]hexanoyl]amino]hexanoyl]-[Aib^8,Arg^34,Lys^37]-GLP-1-(7-37)-peptide]: the EC50 at human GLP-1 receptor [1] (setting [3]) is 0.0033 nM; at human GLP-1 receptor [1] (setting [4]) it was 0.047 nM. Also, the “EC50/pM (ratio 1% HSA/0% HSA)” value on human GLP-1 receptor [1] came out at 14. Further, the IC50 at human GLP-1 receptor [2] (setting [5]) was 199 nM; at human GLP-1 receptor [2] (setting [6]) it was 0.24 nM.

For `CC[C@H](C)[C@H](NC(=O)[C@H](Cc1ccccc1)NC(=O)[C@H](CCC(=O)O)NC(=O)[C@H](CCCCNC(=O)[C@@H](N)CCCCNC(=O)CC[C@H](NC(=O)CC[C@H](NC(=O)CC[C@H](NC(=O)CCCCCCCCCCCCCCC(=O)O)C(=O)O)C(=O)O)C(=O)O)NC(=O)[C@H](C)NC(=O)[C@H](C)NC(=O)[C@H](CCC(N)=O)NC(=O)CNC(=O)[C@H](CCC(=O)O)NC(=O)[C@H](CC(C)C)NC(=O)[C@H](Cc1ccc(O)cc1)NC(=O)[C@H](CO)NC(=O)[C@H](CO)NC(=O)[C@@H](NC(=O)[C@H](CC(=O)O)NC(=O)[C@H](CO)NC(=O)[C@@H](NC(=O)[C@H](Cc1ccccc1)NC(=O)[C@@H](NC(=O)CNC(=O)[C@H](CCC(=O)O)NC(=O)C(C)(C)NC(=O)[C@@H](N)Cc1c[nH]cn1)[C@@H](C)O)[C@@H](C)O)C(C)C)C(=O)N[C@@H](C)C(=O)N[C@@H](Cc1c[nH]c2ccccc12)C(=O)N[C@@H](CC(C)C)C(=O)N[C@H](C(=O)N[C@@H](CCCNC(=N)N)C(=O)NCC(=O)N[C@@H](CCCNC(=N)N)C(=O)N[C@@H](CCCCNC(=O)[C@@H](N)CCCCNC(=O)CC[C@H](NC(=O)CC[C@H](NC(=O)CC[C@H](NC(=O)CCCCCCCCCCCCCCC(=O)O)C(=O)O)C(=O)O)C(=O)O)C(=O)O)C(C)C` [Example 13, N^ε26-[(2S)-2-amino-6-[[(4S)-4-carboxy-4-[[(4S)-4-carboxy-4-[[(4S)-4-carboxy-4-(15-carboxypentadecanoylamino)butanoyl]amino]butanoyl]amino]butanoyl]amino]hexanoyl], N^ε37-[(2S)-2-amino-6-[[(4S)-4-carboxy-4-[[(4S)-4-carboxy-4-[[(4S)-4-carboxy-4-(15-carboxypentadecanoylamino)butanoyl]amino]butanoyl]amino]butanoyl]amino]hexanoyl]-[Aib^8,Arg^34,Lys^37]-GLP-1-(7-37)-peptide], the EC50 on human GLP-1 receptor [1] (0% HSA, read-out: In vitro potency (CRE luciferase) EC50 (0% HSA)) amounted to 0.0022 nM; on human GLP-1 receptor [1] (setting [4]), 1.38 nM. For the same compound, the “EC50/pM (ratio 1% HSA/0% HSA)” value on human GLP-1 receptor [1] was found to be 659. At human GLP-1 receptor [2] (0.001% HSA (low albumin), read-out: Receptor binding affinity IC50 (low HSA)), the IC50 was determined as 0.76 nM. Further, the IC50 (high HSA) at human GLP-1 receptor [2] (Receptor binding affinity IC50 (high HSA), 2.0% HSA (high albumin), heading: Receptor binding affinity IC50) worked out at 545 nM.

For `CC[C@H](C)[C@H](NC(=O)[C@H](Cc1ccccc1)NC(=O)[C@H](CCC(=O)O)NC(=O)[C@H](CCCCNC(=O)[C@@H](N)CCCCNC(=O)[C@@H](N)CCCCNC(=O)CC[C@H](NC(=O)CCCCCCCCCCCOc1ccc(C(=O)O)cc1)C(=O)O)NC(=O)[C@H](C)NC(=O)[C@H](C)NC(=O)[C@H](CCC(N)=O)NC(=O)CNC(=O)[C@H](CCC(=O)O)NC(=O)[C@H](CC(C)C)NC(=O)[C@H](Cc1ccc(O)cc1)NC(=O)[C@H](CO)NC(=O)[C@H](CO)NC(=O)[C@@H](NC(=O)[C@H](CC(=O)O)NC(=O)[C@H](CO)NC(=O)[C@@H](NC(=O)[C@H](Cc1ccccc1)NC(=O)[C@@H](NC(=O)CNC(=O)[C@H](CCC(=O)O)NC(=O)C(C)(C)NC(=O)[C@@H](N)Cc1c[nH]cn1)[C@@H](C)O)[C@@H](C)O)C(C)C)C(=O)N[C@@H](C)C(=O)N[C@@H](Cc1c[nH]c2ccccc12)C(=O)N[C@@H](CC(C)C)C(=O)N[C@H](C(=O)N[C@@H](CCCNC(=N)N)C(=O)NCC(=O)N[C@@H](CCCNC(=N)N)C(=O)N[C@@H](CCCCNC(=O)[C@@H](N)CCCCNC(=O)[C@@H](N)CCCCNC(=O)CC[C@H](NC(=O)CCCCCCCCCCCOc1ccc(C(=O)O)cc1)C(=O)O)C(=O)O)C(C)C` [Example 7, N^ε26-[(2S)-2-amino-6-[[(2S)-2-amino-6-[[(4S)-4-carboxy-4-[12-(4-carboxyphenoxy)dodecanoylamino]butanoyl]amino]hexanoyl]amino]hexanoyl], N^ε37-[(2S)-2-amino-6-[[(2S)-2-amino-6-[[(4S)-4-carboxy-4-[12-(4-carboxyphenoxy)dodecanoylamino]butanoyl]amino]hexanoyl]amino]hexanoyl]-[Aib^8,Arg^34,Lys^37]-GLP-1-(7-37)-peptide], on human GLP-1 receptor [1] (setting [4]), the EC50 was determined as 0.096 nM. For the same compound, the IC50 turned out to be 106 nM on human GLP-1 receptor [2] (setting [5]) and 0.13 nM on human GLP-1 receptor [2] (setting [6]).

`CC[C@H](C)[C@H](NC(=O)[C@H](Cc1ccccc1)NC(=O)[C@H](CCC(=O)O)NC(=O)[C@H](CCCCNC(=O)[C@@H](N)CCCCNC(=O)[C@@H](N)CCCCNC(=O)CC[C@H](NC(=O)CCCCCCCCCCOc1ccc(C(=O)O)cc1)C(=O)O)NC(=O)[C@H](C)NC(=O)[C@H](C)NC(=O)[C@H](CCC(N)=O)NC(=O)CNC(=O)[C@H](CCC(=O)O)NC(=O)[C@H](CC(C)C)NC(=O)[C@H](Cc1ccc(O)cc1)NC(=O)[C@H](CO)NC(=O)[C@H](CO)NC(=O)[C@@H](NC(=O)[C@H](CC(=O)O)NC(=O)[C@H](CO)NC(=O)[C@@H](NC(=O)[C@H](Cc1ccccc1)NC(=O)[C@@H](NC(=O)CNC(=O)[C@H](CCC(=O)O)NC(=O)C(C)(C)NC(=O)[C@@H](N)Cc1c[nH]cn1)[C@@H](C)O)[C@@H](C)O)C(C)C)C(=O)N[C@@H](C)C(=O)N[C@@H](Cc1c[nH]c2ccccc12)C(=O)N[C@@H](CC(C)C)C(=O)N[C@H](C(=O)N[C@@H](CCCNC(=N)N)C(=O)NCC(=O)N[C@@H](CCCNC(=N)N)C(=O)N[C@@H](CCCCNC(=O)[C@@H](N)CCCCNC(=O)[C@@H](N)CCCCNC(=O)CC[C@H](NC(=O)CCCCCCCCCCOc1ccc(C(=O)O)cc1)C(=O)O)C(=O)O)C(C)C` [Example 20, N^ε26-[(2S)-2-amino-6-[[(2S)-2-amino-6-[[(4S)-4-carboxy-4-[11-(4-carboxyphenoxy)undecanoylamino]butanoyl]amino]hexanoyl]amino]hexanoyl], N^ε37-[(2S)-2-amino-6-[[(2S)-2-amino-6-[[(4S)-4-carboxy-4-[11-(4-carboxyphenoxy)undecanoylamino]butanoyl]amino]hexanoyl]amino]hexanoyl]-[Aib^8,Arg^34,Lys^37]-GLP-1-(7-37)-peptide]: the EC50 on human GLP-1 receptor [1] (setting [3]) stood at 0.0049 nM; on human GLP-1 receptor [1] (setting [4]), 0.063 nM. Also, at human GLP-1 receptor [1], the “EC50/pM (ratio 1% HSA/0% HSA)” value is given as 13. Moreover, the figures for the IC50 on human GLP-1 receptor [2] (setting [5]) and at human GLP-1 receptor [2] (setting [6]) were 48 nM and 0.13 nM, respectively.

One may read the EC50 as the concentration needed to bring the measured effect to its halfway point. As usually defined, the IC50 is the concentration that gives 50% inhibition.
